Assay results taken from patent publication US5350681A, “Enzymatic membrane method for the synthesis and separation of peptides” (The Coca-Cola Company, priority 1992, dated 1994).

Settings: pH 5

CC(C)OC(=O)[C@@H](N)Cc1ccccc1 [L-phe-O-<, L-phenylalanine isopropyl ester]
chemical stability of L-phe-O-< over L-phe-OMe: seven times higher
stability of the ester (hydrolysis to L-phenylalanine): stable
